# Measurements taken from patent publication US20110124745A1, “Switchable Anionic Surfactants and Methods of Making and Using Same” (priority 2009, published 2011).
# Values joined by “and” are separate entries in the source; they are usually repeats but may differ in a detail not shown here. Equal values may be shown once.
# Tests used:
# Assay type in all cases: physicochemical
# [1] = Switching efficiency by 1H NMR, method A ([(CH3)4N]I internal standard); details: relative to (CH3)4NI set to 100
# Source text: (§1) In both methods, to quantify the concentration of surfactant in solution, its ^1H NMR integration was compared to one of two internal standards of known concentration. In addition to the difference in which internal standard was used, the two methods can also be distinguished from each other on the basis of the timing of the addition of the internal standard. In method A, the standard remains in the solution during the process of switching. In method B, the switching is executed first and the DMF solution of known strength and quantity is added in to the solution.
# (§2) In both methods, the surfactant was turned OFF with CO2 by positioning the needle that supplied the CO2 to the surfactant solution above the solution in such a way that the slow flow of CO2 was allowed to interact with the surfactant solution at the surface. The switching from ON to OFF required 5 min or less. Increasing the surface area, for example, by slightly tilting the vial, expedited the switching from ON to OFF. To turn the surfactant ON, the solution was stirred at 70° C. for 40 min as described above. After each ON cycle, 0.5 mL of D2O was added to the solution to compensate for the loss in the volume caused by evaporation.
# The surfactant solution was prepared by combining 0.046 g of octyl 4-hydroxy-3-nitrobenzoate (1N) and 0.136 g of Na2CO3 in 16.0 mL of D2O. To this solution, 11.5 mg of [(CH3)4N]I was added. The resultant solution was homogenized by sonication for 2 min. […] Stirring bars were introduced in vials 3 to 11. […] The surfactant solutions were turned OFF and ON by the procedure described in Example 3.
# As the standard, [(CH3)4N]I was added early into the surfactant solution. All the solutions were filtered and the ^1H NMR spectra of all these solutions were recorded. In all cases, the integration of [(CH3)4N]I was set to 100 and compared with the integration of aromatic proton at δ ˜7.3. […] Thus the concentration of the surfactant in these solutions was substantially zero. […] Thus the experimental results established that the surfactant turns ON and OFF with substantially 100% efficiency.
# [2] = Switching efficiency by 1H NMR, method B (DMF internal standard); details: relative to DMF standard set to 100
# Source text: as §1, §2
# The surfactant solution was prepared by combining 0.046 g of octyl 4-hydroxy-3-nitrobenzoate and 0.136 g of Na2CO3 in 16.0 mL of D2O. The resultant solution was homogenized by sonication for 2 min. 1.00 mL of this solution was transferred using a Hamilton syringe into thirteen different vials (1, 2, 2*, 3, 4, 5, 6, 7, 8, 9, 10, 11 and 12). Stirring bars were introduced in vials 2* through 12. […] The surfactant in vial 2 was turned OFF by the procedure described above. The solution in vial 2* was turned OFF with CO2 and was then left stirring uncapped at room temperature for 18 h. All the vials (excluding 2*) were tightly capped and left at room temperature for 18 h to confirm the stability of the systems in both the ON/OFF forms upon standing.
# The standard solution of DMF was prepared by mixing 0.005 mL of DMF in 8.0 mL of D2O. […] The ^1H NMR spectra of all solutions were recorded. […]
# [3] = pH studies of ON and OFF surfactant solutions
# Description: For pH studies described below, a pH meter (Orion 4 Star Conductivity Benchtop, available from ThermoElectron Corporation, Mass., USA) was used. The pH meter was calibrated before the measurements as per the instructions provided with the pH meter. All solutions were prepared using deionized water. All pH measurements were done at 25° C.
# Surfactant solution was prepared by dissolving n-octyl 4-hydroxy-3-nitrobenzoate (0.443 g, 1.502 mmol) and anhydrous Na2CO3 (1.27 g, 12.02 mmol) in 150 mL of deionized water. The resultant solution was homogenized by sonication for 2 min. Aliquots (10.0 mL) of this solution were transferred into eleven different vials numbered as 1, 2, 3, 4, 5, 6, 7, 8, 9, 10, and 11 by Hamilton syringe. The level of the solution in each vial was marked using a marker. Stirring bars were introduced in vials 3 to 11. […] To turn the surfactant OFF, CO2 was slowly bubbled through a solution for 10 min (formation of the OFF form was observed by formation of light yellow solid precipitate). To turn the surfactant ON the solution was heated and stirred while immersed in an oil bath preset at 70° C., for 40 min. The solution in vial 2 was turned OFF. The solution in vial 3 was first turned OFF and then ON. The solution in vial 4 was first turned OFF then ON and finally OFF. After completion of the indicated cycle, each vial was first allowed to cool down to room temperature (if the cycle marked its completion with the surfactant in ON form), the solution was then diluted with deionized water. To be consistent with the previous experiments, all the vials were tightly capped (using […]™) and allowed to stand for 18 h at room temperature (see FIG. 2).
# [4] = Solubility observations (aqueous solution, DMSO)
# Source text: The following study confirmed that compounds (1A) and (1N) reversibly convert from the neutral form (1N) to the anionic form (1A) and back to the neutral form over and over again with substantially no loss of product. The conversion was verified visually since the neutral form was not soluble in aqueous solution and appeared as a white precipitate in colourless liquid while the anionic form was fully soluble in aqueous solution and appeared as a clear yellow liquid (see FIG. 2). In addition to visual examination, ^1H NMR studies that are described below confirmed the presence of the hydroxyl proton in the spectra of the neutral form.
# Since n-octyl 4-hydroxy-3-nitrobenzoate (1N) and the […] salt of (1A) are soluble in DMSO and have some characteristic signals in the ^1H NMR spectrum, […] was used as a solvent to monitor the non-aqueous switchability by NMR spectroscopy.
# [5] = D2O with Na2CO3, vial 1, control, never switched (ON)
"Proton integration at ~7.3 δ [1, 5]","Proton integration at ~7.3 δ ([1]; D2O with Na2CO3, vials 3, 5, 7, 9, 11: ON/OFF cycles of Table 1 ending ON (70° C., 40 min))","Proton integration at ~7.3 δ [2, 5]","Proton integration at ~7.3 δ ([2]; vial 2*: turned OFF with CO2, then stirred uncapped at room temperature)","pH when turned OFF ([3]; 0.01 M compound (1) + 0.08 M Na2CO3, after CO2 bubbling, 25° C.)","pH when turned ON ([3]; 0.01 M compound (1) + 0.08 M Na2CO3, after heating at 70° C. for 40 min, measured at 25° C.)","pH of Original stock solution (ON) ([3]; 0.01 M compound (1) neutral form + 0.08 M Na2CO3 in water, 25° C.)",average pH value of the solution in ON form ([3]; ON form after cycling),"pH of the solution ([3]; vial 1, control, never switched (ON), 1.502 mmol (1N) + 12.02 mmol Na2CO3 in 150 mL water)","pH of the solution ([3]; vials 3, 5, 7, 9, 11: cycles of Table 1 ending ON)",solubility in aqueous solution (visual) [4],"Proton integration at ~7.3 δ ([1]; filtered D2O solution, vials 2, 4, 6, 8, 10: cycles of Table 1 ending OFF (CO2))","Proton integration at ~7.3 δ ([2]; filtered solution, vials 2, 4, 6, 8, 10, 12: cycles of Table 1 ending OFF (CO2))",average pH value of the solutions in the OFF form ([3]; OFF form),"pH of the solution ([3]; vials 2, 4, 6, 8, 10: cycles of Table 1 ending OFF)",solubility in DMSO [4],SMILES
24,23 and 24 and 22 and 20,46,45,8.02,8.78,10.87,9.31,10.85,9.26 and 9.24 and 9.22 and 9.44 and 9.38,fully soluble,,,,,,"CCCCCCCCOC(=O)c1ccc(O)c([N+](=O)[O-])c1 [compound (1A), 2-nitro-4-(octyloxycarbonyl)phenolate]"
,,,,,,,,,,,0,0,7.73,7.88 and 7.70 and 7.89 and 7.35 and 7.83,soluble,"CCCCCCCCOC(=O)c1ccc(O)c([N+](=O)[O-])c1 [compound (1N), octyl 4-hydroxy-3-nitrobenzoate]"
